# In patent US20260317319A1, “NOVEL ERGOLINES AND METHODS OF TREATING MOOD DISORDERS” (Gilgamesh Pharma Inc., priority 2023, published 2026):
# Read-outs that look alike come from different tables or passages of the source.
# Legend:
# [1] = in vitro; type: in vitro ADME, rat; conditions: RLM (male Sprague-Dawley) 0.50 mg/mL, NADPH 1 mM, 1 μM compound, pH 7.4, 37° C., 60 min
# Text: RLM Stability Pooled RLM from male Sprague-Dawley rats (Xenotech R1000) were used.
# [2] = in vitro; type: in vitro ADME, mouse; conditions: MLM (male CD-1) 0.50 mg/mL, NADPH 1 mM, 1 μM compound, pH 7.4, 37° C., 60 min
# Text: MLM Stability Pooled MLM from male CD-1 mice (BIOIVT M00501) were used.
# [3] = target: T1, 5-HT2B receptor (Homo sapiens, UniProt P41595); experiment: cell-based; type: cell-based; conditions: Ca2+ flux; for EC50: HEK293
# T1 construct: expressed in transfected cells; host or cells: HEK293, stably transfected
# T1 sequence (P41595 whole entry): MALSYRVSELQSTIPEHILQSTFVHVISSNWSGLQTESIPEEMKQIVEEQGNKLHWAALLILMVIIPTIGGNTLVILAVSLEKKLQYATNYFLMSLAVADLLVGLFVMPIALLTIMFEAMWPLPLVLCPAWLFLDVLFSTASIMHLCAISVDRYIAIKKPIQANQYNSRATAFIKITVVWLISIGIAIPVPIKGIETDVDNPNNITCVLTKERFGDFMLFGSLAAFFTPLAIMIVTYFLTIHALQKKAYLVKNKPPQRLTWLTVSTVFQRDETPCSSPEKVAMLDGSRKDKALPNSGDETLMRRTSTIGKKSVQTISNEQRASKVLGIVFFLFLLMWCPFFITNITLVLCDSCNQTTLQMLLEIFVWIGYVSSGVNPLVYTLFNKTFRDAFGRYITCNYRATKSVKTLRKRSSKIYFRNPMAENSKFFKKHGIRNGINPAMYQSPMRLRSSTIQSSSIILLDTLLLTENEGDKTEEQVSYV
# Summary of the method: (§1)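 FLIPR Tetra fluorescence read-out of calcium flux after compound addition. Receptor-expressing stable lines were used (HEK293 for 2A/2B; CHO with Gα15 for 1A), dye-loaded with Fluo-4 Direct and 2.5 mM final probenecid, 50 min at 37 °C.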
# [4] = target: T2, 5-HT1B receptor (Homo sapiens, UniProt P28222); experiment: cAMP accumulation functional assay at 5-HT1B; type: cell-based; conditions: agonist, cAMP accumulation
# T2 construct: expressed in transfected cells
# T2 sequence (P28222 whole entry): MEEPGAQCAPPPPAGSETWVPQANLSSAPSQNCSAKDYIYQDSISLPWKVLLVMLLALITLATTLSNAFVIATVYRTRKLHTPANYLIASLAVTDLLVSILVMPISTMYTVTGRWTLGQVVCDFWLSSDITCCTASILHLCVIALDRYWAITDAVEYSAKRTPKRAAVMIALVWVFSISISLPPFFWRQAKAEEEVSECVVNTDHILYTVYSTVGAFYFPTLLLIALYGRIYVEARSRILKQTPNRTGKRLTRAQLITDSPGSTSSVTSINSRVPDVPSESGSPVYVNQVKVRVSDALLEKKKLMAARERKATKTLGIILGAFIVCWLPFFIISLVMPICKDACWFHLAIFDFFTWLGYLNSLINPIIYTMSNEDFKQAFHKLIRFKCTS
# Summary of the method: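 Agonist activity measured as cAMP accumulation in cells stably transfected with human 5-HT1B. Cells incubated 60 min at RT, then detection reagent added for a further 60 min at RT before plate reading.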
# [5] = target: T3, 5-HT2C receptor (Homo sapiens, UniProt P28335); experiment: Ca2+ flux functional assay at 5-HT2C (WuXi 5-HT2C protocol); type: cell-based; set-up: expressed in transfected cells
# T3 sequence (P28335 33-458): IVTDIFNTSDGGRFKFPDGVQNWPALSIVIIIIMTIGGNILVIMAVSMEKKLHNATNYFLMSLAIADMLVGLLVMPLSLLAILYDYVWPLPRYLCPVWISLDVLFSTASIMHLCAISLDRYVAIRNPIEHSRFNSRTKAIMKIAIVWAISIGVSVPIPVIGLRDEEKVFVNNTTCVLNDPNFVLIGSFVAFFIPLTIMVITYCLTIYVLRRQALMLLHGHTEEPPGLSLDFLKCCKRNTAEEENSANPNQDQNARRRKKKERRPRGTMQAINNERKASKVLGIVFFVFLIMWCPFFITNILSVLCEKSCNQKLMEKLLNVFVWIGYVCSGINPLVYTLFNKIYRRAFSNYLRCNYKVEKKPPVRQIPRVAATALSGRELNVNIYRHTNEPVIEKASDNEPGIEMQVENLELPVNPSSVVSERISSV
# Method: Disclosed compounds were tested for agonist activity at several serotonin receptor subtypes (5-HT2A, […], 5-HT2C, and 5-HT1A) using Ca^2+ flux functional assays and the 5-HT1B receptor using a cAMP accumulation assay, with the results summarized in Table 4. […] Potent agonist activity was also observed at the other serotonin receptors tested, although the selectivity profile among the receptors varied across compounds. […] However, at the same time, the N-propyl compounds were more efficacious agonists at 5-HT2B than the corresponding N-methyl compounds. The selectivity of disclosed compounds for 5-HT2A over 5-HT2C and 5-HT1A was less predictable and varied widely across compounds. […] An azetidinyl amide substituent tended to increase potency at 5-HT1A relative to 5-HT2A.
# Functional Assays at 5-HT2A, 5-HT2B, and 5-HT1A. Agonist activity at 5-HT2A, 5-HT2B, 5HT2C and 5-HT1A receptors was determined using a FLIPR Ca^2+ flux assay at WuXi AppTec (Hong Kong) Limited according to their standard protocols. Briefly, stably transfected cells expressing the receptor of interest and Gα15 in the case of 5-HT1A (HEK293 for 5-HT2A and 5-HT2B; CHO cells for 5-HT1A) were grown and plated in a 384 well plate and incubated at 37° C. and 5% CO2 overnight. A solution of 250 mM probenecid in 1 mL FLIPR assay buffer was prepared fresh. This was combined with a fluorescent dye (Fluo-4 Direct™) to make a final assay concentration of 2.5 mM. Compounds were diluted 1:3.16 for 10 points and 750 nL was added to a 384 well compound plate using ECHO along with 30 μL assay buffer. The fluorescent dye was then added to the assay plate along with assay buffer to a final volume of 40 μL. The cell plate was incubated for 50 min at 37° C. and 5% CO2 and placed into the FLIPR Tetra along with the compound plate. 10 μL of references and compounds were then transferred from the compound plate into the cell plate and the fluorescent signal was read.
# [6] = target: T4, 5-HT2A receptor (Homo sapiens, UniProt P28223); experiment: cell-based; type: cell-based; set-up: expressed in transfected cells; host or cells: HEK293, stably transfected; conditions: Ca2+ flux; for EC50: HEK293
# T4 sequence (P28223 whole entry): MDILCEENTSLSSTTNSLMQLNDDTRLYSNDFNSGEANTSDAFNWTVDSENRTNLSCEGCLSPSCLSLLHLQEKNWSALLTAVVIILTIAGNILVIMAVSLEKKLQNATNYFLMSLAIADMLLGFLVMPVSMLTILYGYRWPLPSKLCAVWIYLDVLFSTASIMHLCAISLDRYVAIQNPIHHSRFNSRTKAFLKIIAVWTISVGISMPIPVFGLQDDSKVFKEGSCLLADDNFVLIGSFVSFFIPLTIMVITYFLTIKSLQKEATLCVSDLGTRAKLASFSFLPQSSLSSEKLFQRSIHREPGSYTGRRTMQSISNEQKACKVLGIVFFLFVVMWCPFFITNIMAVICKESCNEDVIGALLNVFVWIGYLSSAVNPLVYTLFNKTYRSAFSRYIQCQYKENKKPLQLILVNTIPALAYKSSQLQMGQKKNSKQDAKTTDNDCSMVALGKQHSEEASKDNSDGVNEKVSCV
# Summary of the method: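 Agonist activity measured by FLIPR Ca2+ flux in stably transfected cells: HEK293 for 5-HT2A and 5-HT2B, CHO co-expressing Gα15 for 5-HT1A. Cells loaded with Fluo-4 Direct dye plus probenecid (2.5 mM final) for 50 min at 37 °C, 5% CO2; compounds added and fluorescence read on FLIPR Tetra.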
# [7] = target: T5, 5-HT1A receptor (Homo sapiens, UniProt P08908); experiment: cell-based; conditions: agonist, Ca2+ flux; for EC50: CHO cells with Gα15
# T5 construct: expressed in transfected cells; host or cells: CHO cells, stably transfected
# T5 sequence (P08908 1-422): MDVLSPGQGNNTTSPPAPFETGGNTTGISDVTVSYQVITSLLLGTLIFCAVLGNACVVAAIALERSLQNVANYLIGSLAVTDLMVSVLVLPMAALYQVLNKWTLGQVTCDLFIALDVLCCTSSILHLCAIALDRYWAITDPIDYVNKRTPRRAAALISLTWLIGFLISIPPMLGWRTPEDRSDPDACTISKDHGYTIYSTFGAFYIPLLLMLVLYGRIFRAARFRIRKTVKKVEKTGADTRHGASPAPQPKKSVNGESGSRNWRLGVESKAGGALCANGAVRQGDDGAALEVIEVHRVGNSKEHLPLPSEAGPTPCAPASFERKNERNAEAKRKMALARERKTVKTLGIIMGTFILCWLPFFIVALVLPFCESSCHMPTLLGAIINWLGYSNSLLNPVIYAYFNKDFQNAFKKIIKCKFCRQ
# Summary of the method: as §1
# [8] = target: T4, 5-HT2A receptor; experiment: biochemical; type: binding; set-up: expressed in transfected cells; host or cells: HEK293, stably transfected; conditions: [3H]ketanserin 1 nM; HEK293 stable cell line; 1 h, 25 °C
# Summary of the method: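 Binding affinity comes from a [^3H]ketanserin radioligand assay run under literature-adapted conditions.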
# [9] = in vitro; type: in vitro ADME, human; conditions: HLM 0.50 mg/mL, NADPH 1 mM, 1 μM compound, pH 7.4, 37° C., 60 min
# [10] = tested on: C57BL/6 mice; experiment: Mouse head twitch response (HTR) assay (observer-counted); type: in vivo; conditions: SC
# Method: Agonists of the 5-HT2A receptor are well known to induce this effect in rodents and the potency of this HTR is correlated with hallucinogenic potency in humans.
# Animals. Adult male C57BL/6 mice, aged 6-8 weeks (body weight 20-25 g) were used in this experiment. Animals were housed under controlled temperatures and 12-hour light/dark cycles (lights on between 07:00-19:00 h), with ad libitum food and water. This study was carried out in strict accordance with the requirements of the Committee for the Purpose of Control and Supervision of Experiments on Animals (CPCSEA), India. All efforts were made to minimize suffering.
# Procedure. Mice were administered one dose of the drug and immediately placed into a small open field for behavioral observation. Animals were observed continuously for 20 mins and the number of head twitches (HTs) were counted by an observer blind to the treatment condition.
# Statistical Analysis. The data points shown are the mean±standard error of the mean (SEM). Analysis was performed using GraphPad Prism 6. Curves were fit using a non-linear gaussian distribution to calculate ED50 and Emax values.
# Additional disclosed compounds were tested in the mouse head twitch response (HTR) assay according to the procedure described in Example 57 (administered SC). […] Lastly, compounds with much larger benzyl and phenethyl substituents on the amine nitrogen (e.g., 10 and 11) were low efficacy in this assay, consistent with their bias toward arrestin signaling (see Example 55).
# [11] = target: T4, 5-HT2A receptor; experiment: cell-based; type: cell-based; conditions: beta-arrestin recruitment
# Summary of the method: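 PathHunter β-arrestin recruitment (enzyme fragment complementation): 5-HT2A fused to ProLink donor in cells co-expressing β-arrestin–β-galactosidase acceptor, seeded and held at 37° C before testing. Chemiluminescent read-out; agonist % activity = (sample RLU − vehicle)/(max control ligand − vehicle) × 100.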
structure (smiles),measurement,setting,value
CCN(CC)C(=O)[C@@H]1C=C2c3cccc4[nH]cc(c34)C[C@H]2N(Cc2ccnc(OC)c2)C1 [Compound 79],Intrinsic clearance (Clint),[1],80.5 µL/min/mg
same,half-life (t1/2),[1],17.2 min
same,Intrinsic clearance (Clint),[2],298.4 µL/min/mg
same,half-life (t1/2),[2],4.6 min
same,EC50,[3]; agonist,> 10 µM
same,5-HT2B % Act @ Max Dose,"[3]; agonist, HEK293, max dose",1.38%
same,EC50,[4],> 10 µM
same,5-HT1B % Act @ Max Dose,[4]; max dose,42.45%
same,EC50,"[5]; agonist, Ca2+ flux, tested using WuXi 5-HT2C protocol, read-out: 5-HT2C EC50 (* WuXi protocol)",> 10 µM
same,5-HT2C % Act @ Max Dose (* WuXi protocol),"[5]; agonist, tested using WuXi 5-HT2C protocol, max dose",0.60* %
same,EC50,[6]; agonist,2.5 µM
same,5-HT2A % Act @ Max Dose,"[6]; agonist, HEK293, max dose",68.17%
same,EC50,[7],8.05 µM
same,5-HT1A % Act @ Max Dose,"[7]; CHO cells with Gα15, max dose",77.71%
same,Ki,[8],0.182 µM
same,Intrinsic clearance (Clint),[9],61.2 µL/min/mg
same,half-life (t1/2),[9],22.7 min
"CCN(CC)C(=O)[C@@H]1C=C2c3cccc4[nH]cc(c34)C[C@H]2N(Cc2ccccc2C)C1 [Compound 99, (6aR,9R)—N,N-diethyl-7-(2-methylbenzyl)-4,6,6a,7,8,9-hexahydroindolo[4,3-fg]quinoline-9-carboxamide]",microsomal CLint,"[1]; rat, microsomes, read-out: Intrinsic clearance (Clint)",174 µL/min/mg
same,half-life,"[1]; rat, microsomes, read-out: half-life (t1/2)",8 min
same,microsomal CLint,"[2]; mouse, microsomes, read-out: Intrinsic clearance (Clint)",426 µL/min/mg
same,half-life,"[2]; mouse, microsomes, read-out: half-life (t1/2)",3.3 min
same,Emax,"[3]; HEK293, agonist, HEK293, max dose, read-out: 5-HT2B % Act @ Max Dose",1.41%
same,EC50,[3]; agonist,> 10 µM
same,EC50,[5],> 10 µM
same,Emax,"[5]; agonist, tested using WuXi 5-HT2C protocol, max dose, read-out: 5-HT2C % Act @ Max Dose (* WuXi protocol)",0.56%
same,Emax,"[6]; HEK293, agonist, HEK293, max dose, read-out: 5-HT2A % Act @ Max Dose",73.6%
same,EC50,[6]; agonist,1.21 µM
same,Emax,"[7]; CHO, CHO cells with Gα15, max dose, read-out: 5-HT1A % Act @ Max Dose",69.9%
same,EC50,[7],19.6 µM
same,Ki,[8],0.00922 µM
same,microsomal CLint,"[9]; human, microsomes, read-out: Intrinsic clearance (Clint)",86.4 µL/min/mg
same,half-life,"[9]; human, microsomes, read-out: half-life (t1/2)",16 min
C[C@H]1C[C@H](C)N1C(=O)[C@@H]1C=C2c3cccc4[nH]cc(c34)C[C@H]2N(C)C1 [Int11],Intrinsic clearance (Clint),[1],25.3 µL/min/mg
same,half-life (t1/2),[1],54.9 min
same,Intrinsic clearance (Clint),[2],100 µL/min/mg
same,half-life (t1/2),[2],13.9 min
same,ED50 (HTR),"[10]; 20 min, curve fit poor in some cases",0.0154 mg/kg
same,"Emax, HTR/20 min",[10]; curve fit poor in some cases,10.93 HTR/20 min
same,efficacy in HTR assay,[10]; maximal effect,lower efficacy than analogous compounds bearing other amide substituents
same,# HTR/20 min at Most Efficacious Dose,[10]; most efficacious dose 0.1 mg/kg,10.667 HTR/20 min
same,5-HT2A Arrestin % Act @ Max Dose,"[11]; agonist, max dose",49.27%
same,5-HT2A arrestin agonist class,[11],partial agonists
same,5-HT2A arrestin Emax (bound),[11]; partial agonists,< 60%
same,Intrinsic clearance (Clint),[9],53.9 µL/min/mg
same,half-life (t1/2),[9],25.7 min
